The text below walks through data of paper PMC6789782, “Safety Pharmacological Evaluation of the Coffee Component, Caffeoylquinic Acid, and Its Metabolites, Using Ex Vivo and In Vitro Profiling Assays” (Pharmaceuticals, 2019).

Series [1] relates to Calcium Channel L-Type, Benzothiazepine. The series is described as follows: In vitro profiling, binding assay. More on the design: species or system rat. Conditions: 30 µM. On the procedure: (§1) Binding and functional assays of CGAs with the proteins known to be pharmacological targets related to the CVS, CNS, and GI functions were conducted. […] In the binding assay, we measured the radiation activity of the solution containing filtered proteins that bound to the tested compound or high-affinity ligand, while in the functional assays, we measured the reaction product. The ability of the test compound to interact with the tested targets was measured as the inhibition of ligand binding to the target or reaction product production (% inhibition).

Series [2] deals with Calcium Channel L-Type, Dihydropyridine. Briefly: In vitro profiling, binding assay. More on the design: species or system rat. Conditions: 30 µM. On the procedure:
as §1

The subject of series [3] is Calcium Channel L-Type, Phenylalkylamine. Briefly: In vitro profiling, binding assay. More on the design: species or system rat. The conditions noted are these: 30 µM. On the procedure: as §1
The subject of another series is GABAA. Briefly: In vitro profiling, binding assay. More on the design: species or system rat. The conditions noted are these: 30 µM. On the procedure:
as §1

A further series relates to Glutamate, NMDA. The series is described as follows: In vitro profiling, binding assay. More on the design: species or system rat. The conditions noted are these: 30 µM. On the procedure:
as §1

The test system of another series is Sodium Channel. The series is described as follows: In vitro profiling, binding assay. More on the design: species or system rat. The conditions noted are these: 30 µM. On the procedure:
as §1

Another series relates to mice. Conditions: 96 weeks; cited from earlier work.
Another series concerns rats. The conditions noted are these: two years; cited from earlier work.
The next series concerns rat hippocampal slices. Briefly: Electrophysiological assay of hippocampal slices, population spike (PS) recording. On the procedure:
All animals were housed and used in accordance with the French and European legislations for animal care. Rats (Janvier Labs, Le Genest-Saint-Isle, France) were euthanized by fast decapitation, without prior anesthesia. The brain was quickly removed and soaked in ice-cold oxygenated buffer containing KCl 2 mM, NaH2PO4 1.2 mM, MgCl2 7 mM, CaCl2 0.5 mM, NaHCO3 26 mM, glucose 11 mM, and sucrose 250 mM. […] During the experiments, slices were perfused with oxygenated artificial cerebrospinal fluid at 37 °C at a rate of 3 mL/min. The tested slice numbers were > 2 for 100 µM, > 4 for 10 µM, and > 6 for 1 µM (follow-up study). All experiments were carried out with 3-dimensional multielectrode array (Qwane Biosciences S.A., Lausanne, Switzerland) and data were recorded with a commercially available multielectrode array set-up from MultiChannel Systems (MCS GmbH, Reutlingen, Germany).
A hippocampal slice was placed on the multielectrode array (100 μm distant electrodes). One electrode was chosen to stimulate schaffer collaterals (SC) at the CA1 border. The stimulus in a monopolar biphasic current pulse (−300 μA for 60 μs followed by +300 μA for 60 μs) was applied at 30-s intervals. An Input/Output (I/O) curve was derived before each experiment to determine the stimulation intensity. Basal stimulation intensity was then set to 100 μA higher than the minimal intensity necessary to induce PS in the pyramidal cell layer.
Then, 1 μM bicuculline, the antagonist of GABAA, was applied in the continuous presence of the compound for an additional 40-min. Control bicuculline slices were recorded in parallel and after 50 min of control recording, 1 μM bicuculline was applied for a 40-min period.
Normalized PS AUC was averaged by slices for each experiment carried out in the same conditions. PS AUC (± SEM) is expressed as a function of time. The number of PS oscillations induced at the end of the bicuculline-exposure period was determined for each electrode and averaged by slices. The results are presented as mean of the last 2 min of application. Statistical significance was measured using two-way ANOVA analysis with Sidak’s multiple comparisons test, except for the 100 µM concentration because of its small slice number.

Series [4] relates to fundus isolated from guinea pig. Briefly: In vitro Magnus assay, stomach fundus. The conditions noted are these: 100 µM; ± SEM; p < 0.01. On the procedure:
(§2) Guinea pigs (Japan SLC, Inc., Shizuoka, Japan) were anesthetized with pentobarbital sodium (30–50 mg/kg, i.p.) and the stomach fundi, ileums, and colons were dissected after being exsanguinated. Tissues were immediately placed in Tyrode’s solution containing NaCl 136.9 mM, KCl 2.7 mM, MgCl2.6H2O 1.2 mM, CaCl2.2H2O 2.0 mM, NaHCO3 11.9 mM, and D(+)-glucose 5.6 mM, and flushed for luminal content removal. Segments of approximately 2 cm were cut from each tissue and placed in an organ bath containing Tyrode’s solution aerated with O2:CO2 (95:5) at 32 °C. The tissue segments were connected to an isometric transducer (load, 1.0 g) to record the contractions (Nihon Kohden Corporation, Tokyo, Japan).
(§3) Maximum recording period for one condition was 20 min, and the test solution was exchanged when no effect was detected within 3 min. […] The concentration of acetylcholine was set based on preliminary experiments.

Series [5] deals with GI transit and gastric emptying. The conditions noted are these: rats; dose-dependent manner; cited from earlier work.
For series [6], the system named is ileum isolated from guinea pig. Briefly: In vitro Magnus assay, ileum. The conditions noted are these: 100 µM; ± SEM; p < 0.05. On the procedure:
as §2, §3

In the case of `O=C(O)/C=C/c1ccc(O)c(O)c1` [CA, caffeic acid], the “% Inhibition” value in [1] is −3%; in series [2], 7%; in series [3], 21%; in the series on GABAA it was 18%; in the series with Glutamate, NMDA, 5%; in the series on Sodium Channel, 1%. In addition, the “Safety pharmacological toxicity on chronic exposure” value in the series on mice and in the series with rats was “no safety pharmacological toxicity” throughout.

As for `COc1cc(/C=C/C(=O)O)ccc1O` [FA, ferulic acid], in the series on rat hippocampal slices (follow-up test, 1 µM alone, single application period), the Additional spike number result is recorded as “did not trigger multiple spikes”. Also, the “Tension in the fundus” value in series [4] came out at 0.089 ± 0.005 g. For the same molecule, the “% Inhibition” value in series [1] turned out to be 6%; in series [2], 1%; in series [3] it was 26%; with GABAA, 1%; in the series on Glutamate, NMDA it was 16%; in the series on Sodium Channel, 5%. In addition, the “Effect on GI transit and gastric emptying” value in series [5] is given as “significantly accelerates”.

With `COc1cc(/C=C/C(=O)O[C@H]2C[C@@](O)(C(=O)O)C[C@H](O)[C@@H]2O)ccc1O` [5-FQA, 5-O-feruloylquinic acid], the Additional spike number entry with rat hippocampal slices (10 μM compound, co-exposure with 1 μM bicuculline) was “in the same range as the bicuculline control slices”. Also, the “% Inhibition” value in series [1] worked out at 6%; in series [2], 6%; in series [3] it was 19%; with GABAA, 15%; in the series with Glutamate, NMDA, 10%; with Sodium Channel it was 10%.

Regarding `O=C(/C=C/c1ccc(O)c(O)c1)O[C@H]1C[C@@](O)(C(=O)O)C[C@H](O)[C@@H]1O` [5-CQA, 5-O-caffeoylquinic acid], the “Tension in the ileum” value in [6] stood at 0.293 ± 0.068 g. Besides, the “% Inhibition” value in [1] is on record as −3%; in [2], 1%; in [3], 14%; in the series with GABAA it was 8%; in the series with Glutamate, NMDA, 9%; with Sodium Channel, 19%.
